1 compound from patent US5422350A, “Nitrogen substituted acridine and cytochrome P450 inhibitors and methods of use” (priority 1992, dated 1995) can be followed below.

Series [1] is described as follows: In vitro metabolism of 14C-tacrine in rat liver microsomes. Conditions: for TAC: w/out NADPH. Here is the method: (§1) Total reaction volume was 3 mL. Reactions were stopped by freezing in liquid nitrogen or dry-ice acetone. […] D. J. Waxman and L. Axaroff, "Phenobarbital induction of cytochrome P-450 Gene Expression", BIOCHEM J, Vol. 281, pp. 577-592 (1992); P. Soucek and I. Gut, supra.
A general note: Liver microsomes are a subcellular fraction often used to study metabolism.

A short description of series [2]: Irreversible protein binding of 14C-tacrine-derived radioactivity, human liver microsomes. Here is the method:
as §1
C. N. Martin and R. C. Garner: "Covalent Binding In Vitro and In Vivo" in BIOCHEMICAL TOXICOLOGY: A PRACTICAL APPROACH, Eds. K. Snell and B. Mullock, IRL, Wash. D.C. pp. 109-126 (1987).

Where [3] appears, read: MC induced Rat, w/NADPH, 60 min.
[4] abbreviates: Noninduced Rat, w/NADPH, 60 min.
Where [5] appears, read: PB induced Rat, w/NADPH, 60 min.

As to `Cl.Nc1c2c(nc3ccccc13)CCCC2.O` [Tacrine, 1,2,3,4-tetrahydro-9-acridinamine monohydrate monohydrochloride], the 1-OH in series [1] (I induced Rat, w/NADPH, 60 min) is 1.57 nmole equivalents; in series [1] (setting [3]), 0.790 nmole equivalents; in series [1] (setting [4]), 0.994 nmole equivalents; in series [1] (setting [5]) it was 1.15 nmole equivalents. The “POLAR UNKS” value in series [1] (I induced Rat, w/NADPH, 60 min) worked out at 0.083 nmole equivalents; in series [1] (setting [3]), 0.009 nmole equivalents; in series [1] (setting [4]), 0.022 nmole equivalents; in series [1] (setting [5]), 0.026 nmole equivalents. Moreover, the TAC in series [1] (I induced Rat, 60 min) was determined as 1.14 nmole equivalents; in series [1] (MC induced Rat, 60 min), 1.16 nmole equivalents; in series [1] (Noninduced Rat, 60 min), 1.22 nmole equivalents; in series [1] (PB induced Rat, 60 min), 1.20 nmole equivalents. Also, in series [1] (setting [3]), the 4-OH turned out to be 0.018 nmole equivalents. Besides, the UNKS in series [1] (setting [3]) came to 0.091 nmole equivalents. Also, the 2-OH in series [1] (setting [4]) is listed as 0.088 nmole equivalents; in series [1] (setting [5]) it was 0.144 nmole equivalents. Further, the 1-hydroxytacrine produced entry in series [1] (rat vs human preparations) is “more 1-hydroxytacrine produced as compared to human preparations”. The “detection of a hydroxylamine metabolite” value in series [2] is “unsuccessful”. Besides, the “irreversible binding of 14C-tacrine-derived radioactivity to microsomal protein” value in series [2] is on record as “no detectable”. The “rate and products of metabolism” value in series [2] is recorded as “rapidly metabolized not only to 1-hydroxytacrine but also to 7-hydroxytacrine”.
